Columns and labels:
[1] = system: Influenza A virus; assay: Anti-viral activity against Influenza A virus H7N1 pseudotype infected in human A549 cells assessed as inhibition of viral entry incubated for 48 hrs by Neolite Reporter Gene Assay; format: functional, organism-based; settings: H7N1, A549, 48 h
[2] = Metabolic stability in human liver microsomes assessed as compound remaining at 2 to 10 uM measured after 60 mins in presence of furafylline/NADPH by LC-MS/MS analysis; format: ADME, Microsome; settings: with furafylline, dose 2-10 µM, read-out: Stability
[3] = Metabolic stability in human liver microsomes assessed as compound remaining at 2 to 10 uM measured after 60 mins in presence of quinidine/NADPH by LC-MS/MS analysis; format: ADME, Microsome; settings: with quinidine, dose 2-10 µM, read-out: Stability
[4] = Cytotoxicity against human A549 cells incubated for 48 hrs by CellTiter-Glo Luminescent Cell Viability Assay; format: toxicity, cell-based
[5] = Metabolic stability in BALB/c mouse liver microsomes assessed as compound remaining at 2 to 10 uM measured after 60 mins in presence of quinidine/NADPH by LC-MS/MS analysis; format: ADME, Microsome; settings: with quinidine, dose 2-10 µM, read-out: Stability
[6] = Metabolic stability in human plasma at 2 uM measured after 60 mins by LC-MS/MS analysis; format: ADME, cell-free; settings: 1 h
[7] = Metabolic stability in BALB/c mouse liver microsomes assessed as compound remaining at 2 to 10 uM measured after 60 mins in absence of NADPH by LC-MS/MS analysis; format: ADME, Microsome; settings: dose 2-10 µM, read-out: Stability
[8] = Metabolic stability in BALB/c mouse liver microsomes assessed as compound remaining at 2 to 10 uM measured after 60 mins in presence of NADPH by LC-MS/MS analysis; format: ADME, Microsome; settings: dose 2-10 µM, read-out: Stability
[9] = Metabolic stability in human liver microsomes assessed as compound remaining at 2 to 10 uM measured after 60 mins in presence of ketoconazole/NADPH by LC-MS/MS analysis; format: ADME, Microsome; settings: with ketoconazole, dose 2-10 µM, read-out: Stability
[10] = Metabolic stability in human liver microsomes assessed as compound remaining at 2 to 10 uM measured after 60 mins in absence of NADPH by LC-MS/MS analysis; format: ADME, Microsome; settings: dose 2-10 µM, read-out: Stability
[11] = Metabolic stability in BALB/c mouse liver microsomes assessed as compound remaining at 2 to 10 uM measured after 60 mins in presence of sulfaphenazole/NADPH by LC-MS/MS analysis; format: ADME, Microsome; settings: with sulfaphenazole, dose 2-10 µM, read-out: Stability
[12] = Metabolic stability in mouse plasma at 2 uM measured after 60 mins by LC-MS/MS analysis; format: ADME, cell-free; settings: 1 h
[13] = Metabolic stability in human liver microsomes assessed as compound remaining at 2 to 10 uM measured after 60 mins in presence of NADPH by LC-MS/MS analysis; format: ADME, Microsome; settings: dose 2-10 µM, read-out: Stability
[14] = Metabolic stability in BALB/c mouse liver microsomes assessed as compound remaining at 2 to 10 uM measured after 60 mins in presence of ketoconazole/NADPH by LC-MS/MS analysis; format: ADME, Microsome; settings: with ketoconazole, dose 2-10 µM, read-out: Stability
[15] = Metabolic stability in human liver microsomes assessed as compound remaining at 2 to 10 uM measured after 60 mins in presence of sulfaphenazole/NADPH by LC-MS/MS analysis; format: ADME, Microsome; settings: with sulfaphenazole, dose 2-10 µM, read-out: Stability
[16] = Metabolic stability in BALB/c mouse liver microsomes assessed as compound remaining at 2 to 10 uM measured after 60 mins in presence of furafylline/NADPH by LC-MS/MS analysis; format: ADME, Microsome; settings: with furafylline, dose 2-10 µM, read-out: Stability

## COc1ccc(-c2nc3ncccn3c2NC2CCCCC2)cc1
[1]
  EC50: 0.08 µM
[2]
  remaining at 1 h, up to 10 µM: 71%
[3]
  remaining at 1 h, up to 10 µM: 36.5%
[4]
  CC50 at 48 h: > 1250 µM
[5]
  remaining at 1 h, up to 10 µM: 4.2%
[6]
  Stability: Stable
[7]
  remaining at 1 h, up to 10 µM: 113%
[8]
  remaining at 1 h, up to 10 µM: 2.3%
[9]
  remaining at 1 h, up to 10 µM: 65.1%
[10]
  remaining at 1 h, up to 10 µM: 113%
[11]
  remaining at 1 h, up to 10 µM: 4.5%
[12]
  Stability: Stable
[13]
  remaining at 1 h, up to 10 µM: 21.1%
[14]
  remaining at 1 h, up to 10 µM: 39.4%
[15]
  remaining at 1 h, up to 10 µM: 32%
[16]
  remaining at 1 h, up to 10 µM: 12.2%

## Fc1ccc(-c2nc3ncccn3c2NC2CCCCC2)cc1
[1]
  EC50: 0.04 µM
[4]
  CC50 at 48 h: > 100 µM

## CCOc1ccc(-c2nc3nc(C)cc(C)n3c2NC2CCCCC2)cc1OC
[1]
  EC50: 5.33 µM
[4]
  CC50 at 48 h: > 25 µM

## Cc1cc(C)n2c(NC34CC5CC(C)(CC(C)(C5)C3)C4)c(-c3ccccc3)nc2n1
[1]
  EC50: 13 µM
[4]
  CC50 at 48 h: 32 µM

## COCOc1ccc(-c2nc3ncc(Cl)cn3c2NC2CCCCCC2)cc1
[1]
  EC50: 0.74 µM
[4]
  CC50 at 48 h: > 100 µM
[6]
  Stability: Stable
[7]
  remaining at 1 h, up to 10 µM: 111%
[8]
  remaining at 1 h, up to 10 µM: 2.7%
[10]
  remaining at 1 h, up to 10 µM: 111%
[12]
  Stability: Stable
[13]
  remaining at 1 h, up to 10 µM: 13.8%

## COCOc1ccc(-c2nc3ncccn3c2NC2CCCCCC2)cc1
[1]
  EC50: 0.16 µM
[4]
  CC50 at 48 h: 52 µM

## Fc1cccc(-c2nc3ncccn3c2NC2CCCCC2)c1
[1]
  EC50: 0.39 µM
[4]
  CC50 at 48 h: > 25 µM

## Cc1cc(C)n2c(NC3CCCCC3)c(-c3ccc(Cl)s3)nc2n1
[1]
  EC50: 2.26 µM
[4]
  CC50 at 48 h: 14.8 µM

## COc1ccc(COc2ccc(-c3nc4ncccn4c3NC3CCCCC3)c(F)c2)cc1
[1]
  EC50: 2.1 µM
[4]
  CC50 at 48 h: 39 µM

## Cc1cc(C)n2c(NC3CCCCC3)c(-c3ccncc3)nc2n1
[1]
  EC50: 0.89 µM
[4]
  CC50 at 48 h: > 25 µM

## COCOc1ccc(-c2nc3ncccn3c2NC2CCCCC2)c(F)c1
[1]
  EC50: 0.08 µM
[4]
  CC50 at 48 h: > 100 µM
[6]
  Stability: Stable
[7]
  remaining at 1 h, up to 10 µM: 107%
[8]
  remaining at 1 h, up to 10 µM: 9.2%
[10]
  remaining at 1 h, up to 10 µM: 103%
[12]
  Stability: Stable
[13]
  remaining at 1 h, up to 10 µM: 62.3%

## Fc1ccc(-c2nc3ncccn3c2NC2CCCCC2)cc1N1CCOCC1
[1]
  EC50: 0.68 µM
[4]
  CC50 at 48 h: > 25 µM

## Fc1cc(-c2nc3ncc(Cl)cn3c2NC2CCCCC2)ccc1N1CCOCC1
[1]
  EC50: 1.61 µM
[4]
  CC50 at 48 h: > 100 µM

## Fc1ccc(-c2nc3ncc(Cl)cn3c2NC2CCCC2)cc1F
[1]
  EC50: 8.3 µM
[4]
  CC50 at 48 h: 25 µM

## Fc1ccc(-c2nc3ncccn3c2NC2CCCCC2)cc1F
[1]
  EC50: 0.07 µM
[2]
  remaining at 1 h, up to 10 µM: 19.7%
[3]
  remaining at 1 h, up to 10 µM: 10.9%
[4]
  CC50 at 48 h: > 100 µM
[5]
  remaining at 1 h, up to 10 µM: 5.3%
[6]
  Stability: Stable
[7]
  remaining at 1 h, up to 10 µM: 114%
[8]
  remaining at 1 h, up to 10 µM: 2.7%
[9]
  remaining at 1 h, up to 10 µM: 48.8%
[10]
  remaining at 1 h, up to 10 µM: 113%
[11]
  remaining at 1 h, up to 10 µM: 5.5%
[12]
  Stability: Stable
[13]
  remaining at 1 h, up to 10 µM: 2.2%
[14]
  remaining at 1 h, up to 10 µM: 51.7%
[15]
  remaining at 1 h, up to 10 µM: 7.2%
[16]
  remaining at 1 h, up to 10 µM: 7.3%

## Cc1cc(C)n2c(NC3CCCCC3)c(-c3ccc(Cl)c(Cl)c3)nc2n1
[1]
  EC50: 2.51 µM
[4]
  CC50 at 48 h: 12 µM

## COc1cc(OC)cc(-c2nc3ncccn3c2NC2CCCCC2)c1
[1]
  EC50: 1.89 µM
[4]
  CC50 at 48 h: 47 µM

## CN1CCN(c2ccc(-c3nc4ncc(Cl)cn4c3NC3CCCCC3)cc2F)CC1
[1]
  EC50: 1.49 µM
[4]
  CC50 at 48 h: 31 µM

## Oc1ccc(-c2nc3ncc(Br)cn3c2NC2CCCCCC2)cc1
[1]
  EC50: 3.65 µM
[4]
  CC50 at 48 h: 45 µM

## COc1cc(-c2nc3nc(C)cc(C)n3c2NC2CCCCC2)ccc1F
[1]
  EC50: 2.06 µM
[4]
  CC50 at 48 h: > 25 µM

## COCOc1ccc(-c2nc3ncccn3c2NC2CCCCC2)cc1
[1]
  EC50: 0.09 µM
[4]
  CC50 at 48 h: > 100 µM
[6]
  Stability: Stable
[7]
  remaining at 1 h, up to 10 µM: 109%
[8]
  remaining at 1 h, up to 10 µM: 2.2%
[10]
  remaining at 1 h, up to 10 µM: 105%
[12]
  Stability: Stable
[13]
  remaining at 1 h, up to 10 µM: 63.7%

## COCOc1cc(F)c(-c2nc3ncc(Cl)cn3c2NC2CCCCC2)c(OC)c1
[1]
  EC50: 6.65 µM
[4]
  CC50 at 48 h: 48 µM

## Cc1cc(C)n2c(NC3CCCCC3)c(-c3nccs3)nc2n1
[1]
  EC50: 0.49 µM
[4]
  CC50 at 48 h: > 25 µM
[6]
  Stability: Stable
[7]
  remaining at 1 h, up to 10 µM: 99.9%
[8]
  remaining at 1 h, up to 10 µM: 29.4%
[10]
  remaining at 1 h, up to 10 µM: 101%
[12]
  Stability: Stable
[13]
  remaining at 1 h, up to 10 µM: 19.8%

## COCOc1ccc(-c2nc3ncc(Br)cn3c2NC2CCCCCC2)cc1
[1]
  EC50: 1.31 µM
[4]
  CC50 at 48 h: > 100 µM

Reference: ChEMBL document CHEMBL6134909 (Eur J Med Chem, 2025)
